# Experimental data: patent US5409709A (priority 1991, dated 1995)
# Columns and labels:
# [1] = tested on: pain threshold; experiment: Analgesic action (pressure stimulation of tail base, rise ratio of pain threshold); assay type: in vivo, Wistar strain male rats
# Protocol: Test medication A consisted of a suspension of Acasia used as the control. The other test medications contained the ingredients listed in the Table below, and were suspended in Acasia solution. These test medications were administered orally at a volume of 1 ml/100 g B.W. A pressure stimulation device (Analgesy-meter Model TK-201, Unicom) was used to apply pressure to the base of the tails of the animals. A pain threshold of […] was selected for the experimented animal based on parameters of reaction to temporary pain consisting of writhing, fleeing and squealing. The pain threshold was measured prior to oral administration of each test medication as well as at 30 and 120 minutes after administration. The ratio of the rise in the pain threshold at 30 and 120 minutes after administration was calculated from comparison with that before administration.
# [2] = tested on: writhing syndrome; experiment: Analgesic action (acetic acid writhing syndrome); assay type: in vivo, ddY strain male mice; details: oral, mouse; in terms of the amount of analgesic antipyretic ingredient
# [3] = tested on: body temperature (pyrogenic area, yeast); experiment: Antipyretic action (yeast-induced fever); assay type: in vivo, Wistar strain male rats; details: oral, rat, up to 6 h; in terms of the amount of the antipyretic analgesic ingredient
compound,measurement,setting,value
"CC(C)Cc1ccc(C(C)C(=O)O)cc1 (stereo not shown) [Ibuprofen, 2-(4-isobutylphenyl)propionic acid]",Pain threshold at 30 minutes (in words),[1]; 30 minutes after administration,a remarkable rise was observed
same,Pain threshold at 120 minutes (in words),[1]; 120 minutes after administration,essentially equal to that before administration
same,ED50,[2],137 mg/kg
same,ED50,[3],20.4 mg/kg
